# According to ChEMBL document CHEMBL3102699, “Synthesis and evaluation of 4-substituted piperidines and piperazines as balanced affinity μ opioid receptor (MOR) agonist/δ opioid receptor (DOR) antagonist ligands” (Bioorg Med Chem Lett, 2014):
# Target: T1, Mu-type opioid receptor (Rattus norvegicus, UniProt P33535)
# Assay: Displacement of [3H]diprenorphine from rat mu opioid receptor expressed in rat C6 cell membranes after 1 hr by liquid scintillation counting analysis
# Conditions: not given; call rule not given here
# T1 sequence (P33535 whole entry): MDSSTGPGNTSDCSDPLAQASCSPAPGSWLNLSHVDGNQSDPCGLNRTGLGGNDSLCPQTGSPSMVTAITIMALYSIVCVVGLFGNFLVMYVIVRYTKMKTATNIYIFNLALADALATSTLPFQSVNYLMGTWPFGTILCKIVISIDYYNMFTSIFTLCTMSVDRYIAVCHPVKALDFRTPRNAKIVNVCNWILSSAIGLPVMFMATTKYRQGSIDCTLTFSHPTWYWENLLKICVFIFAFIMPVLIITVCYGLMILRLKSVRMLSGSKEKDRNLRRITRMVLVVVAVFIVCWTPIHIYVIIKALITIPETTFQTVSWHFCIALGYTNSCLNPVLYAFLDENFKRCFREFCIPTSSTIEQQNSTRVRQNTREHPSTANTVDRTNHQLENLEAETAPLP
row,Structure (SMILES),Ki [nM]
1,Cc1cc(O)cc(C)c1C[C@H](N)C(=O)N1CCN(CCCCCc2ccccc2)CC1,0.42
2,Cc1cc(O)cc(C)c1C[C@H](N)C(=O)N1CCN(C/C=C/Cc2ccccc2)CC1,0.29
3,Cc1cc(O)cc(C)c1C[C@H](N)C(=O)N1CCN(CCC(c2ccccc2)c2ccccc2)CC1,1.1
4,Cc1cc(O)cc(C)c1C[C@H](N)C(=O)N1CCC(Cc2ccccc2)CC1,1.4
5,Cc1cc(O)cc(C)c1C[C@H](N)C(=O)N1CCC(CCCc2ccccc2)CC1,2
6,Cc1cc(O)cc(C)c1C[C@H](N)C(=O)N1CCC(Cc2ccccc2)c2ccccc21 (stereo partly specified),29
7,Cc1cc(O)cc(C)c1C[C@H](N)C(=O)N1CCN(C/C=C\Cc2ccccc2)CC1,0.3
8,Cc1cc(O)cc(C)c1C[C@H](N)C(=O)N1CCN(CCCc2ccccc2)CC1,3.8
9,Cc1cc(O)cc(C)c1C[C@H](N)C(=O)N1CCN(CCCCc2ccccc2)CC1,0.45

# Target: T1, Mu-type opioid receptor
# Assay: Agonist activity at rat mu opioid receptor expressed in rat C6 cells assessed as stimulation of [35S]-GTPgammaS binding after 1 hr by liquid scintillation counting analysis
# Format: functional, cell-based
# Conditions: c6
row,Structure (SMILES),EC50
1,Cc1cc(O)cc(C)c1C[C@H](N)C(=O)N1CCN(CCC(c2ccccc2)c2ccccc2)CC1,Not Active
2,Cc1cc(O)cc(C)c1C[C@H](N)C(=O)N1CCC(Cc2ccccc2)CC1,Not Active
3,Cc1cc(O)cc(C)c1C[C@H](N)C(=O)N1CCC(Cc2ccccc2)c2ccccc21 (stereo partly specified),Not Active
4,Cc1cc(O)cc(C)c1C[C@H](N)C(=O)N1CCN(C/C=C/c2cccc3ccccc23)CC1,Not Active

# Same assay, conditions: read-out: EC50
row,Structure (SMILES),EC50 [nM]
1,Cc1cc(O)cc(C)c1C[C@H](N)C(=O)N1CCN(CCCCCc2ccccc2)CC1,53
2,Cc1cc(O)cc(C)c1C[C@H](N)C(=O)N1CCN(C/C=C/Cc2ccccc2)CC1,20
3,Cc1cc(O)cc(C)c1C[C@H](N)C(=O)N1CCC(CCCc2ccccc2)CC1,119
4,Cc1cc(O)cc(C)c1C[C@H](N)C(=O)N1CCN(C/C=C\Cc2ccccc2)CC1,41
5,Cc1cc(O)cc(C)c1C[C@H](N)C(=O)N1CCN(CCCc2ccccc2)CC1,150
6,Cc1cc(O)cc(C)c1C[C@H](N)C(=O)N1CCN(CCCCc2ccccc2)CC1,64

# Target: T2, Delta-type opioid receptor (Rattus norvegicus, UniProt P33533)
# T2 sequence (P33533 whole entry): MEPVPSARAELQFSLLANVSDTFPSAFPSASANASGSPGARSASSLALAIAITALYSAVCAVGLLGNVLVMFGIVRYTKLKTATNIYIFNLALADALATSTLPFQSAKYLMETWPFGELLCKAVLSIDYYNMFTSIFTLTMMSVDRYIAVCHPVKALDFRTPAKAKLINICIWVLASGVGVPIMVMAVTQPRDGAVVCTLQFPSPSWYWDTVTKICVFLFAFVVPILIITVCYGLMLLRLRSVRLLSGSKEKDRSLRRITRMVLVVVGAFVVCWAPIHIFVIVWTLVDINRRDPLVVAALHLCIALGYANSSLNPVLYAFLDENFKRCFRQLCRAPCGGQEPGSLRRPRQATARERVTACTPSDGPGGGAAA
# Assay: Agonist activity at rat delta opioid receptor expressed in rat C6 cells assessed as stimulation of [35S]-GTPgammaS binding after 1 hr by liquid scintillation counting analysis
# Format: functional, cell-based
# Conditions: not given
row,Structure (SMILES),EC50
1,Cc1cc(O)cc(C)c1C[C@H](N)C(=O)N1CCN(CCCCCc2ccccc2)CC1,Not Active
2,Cc1cc(O)cc(C)c1C[C@H](N)C(=O)N1CCN(C/C=C/Cc2ccccc2)CC1,Not Active
3,Cc1cc(O)cc(C)c1C[C@H](N)C(=O)N1CCN(CCC(c2ccccc2)c2ccccc2)CC1,Not Active
4,Cc1cc(O)cc(C)c1C[C@H](N)C(=O)N1CCC(Cc2ccccc2)CC1,Not Active
5,Cc1cc(O)cc(C)c1C[C@H](N)C(=O)N1CCC(CCCc2ccccc2)CC1,Not Active
6,Cc1cc(O)cc(C)c1C[C@H](N)C(=O)N1CCC(Cc2ccccc2)c2ccccc21 (stereo partly specified),Not Active
7,Cc1cc(O)cc(C)c1C[C@H](N)C(=O)N1CCN(C/C=C\Cc2ccccc2)CC1,Not Active
8,Cc1cc(O)cc(C)c1C[C@H](N)C(=O)N1CCN(C/C=C/c2cccc3ccccc23)CC1,Not Active
9,Cc1cc(O)cc(C)c1C[C@H](N)C(=O)N1CCN(CCCc2ccccc2)CC1,Not Active
10,Cc1cc(O)cc(C)c1C[C@H](N)C(=O)N1CCN(CCCc2cccc3ccccc23)CC1,Not Active
11,Cc1cc(O)cc(C)c1C[C@H](N)C(=O)N1CCN(CCCCc2ccccc2)CC1,Not Active

# Target: T3, Kappa-type opioid receptor (Homo sapiens, UniProt P41145)
# T3 sequence (P41145 whole entry): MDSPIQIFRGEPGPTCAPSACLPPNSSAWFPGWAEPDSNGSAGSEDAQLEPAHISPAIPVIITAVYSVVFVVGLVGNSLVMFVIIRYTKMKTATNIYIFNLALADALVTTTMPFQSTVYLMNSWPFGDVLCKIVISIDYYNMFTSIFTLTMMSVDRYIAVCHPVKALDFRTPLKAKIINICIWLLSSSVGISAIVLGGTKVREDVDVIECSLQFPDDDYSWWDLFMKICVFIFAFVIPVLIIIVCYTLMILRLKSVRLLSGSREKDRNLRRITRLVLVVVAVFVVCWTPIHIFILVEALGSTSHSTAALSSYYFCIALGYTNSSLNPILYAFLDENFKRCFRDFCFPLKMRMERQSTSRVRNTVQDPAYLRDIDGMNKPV
# Assay: Displacement of [3H]diprenorphine from human kappa opioid receptor expressed in CHO cell membranes after 1 hr by liquid scintillation counting analysis
# Conditions: not given
row,Structure (SMILES),Ki [nM]
1,Cc1cc(O)cc(C)c1C[C@H](N)C(=O)N1CCN(CCCCCc2ccccc2)CC1,39
2,Cc1cc(O)cc(C)c1C[C@H](N)C(=O)N1CCN(CCC(c2ccccc2)c2ccccc2)CC1,150
3,Cc1cc(O)cc(C)c1C[C@H](N)C(=O)N1CCC(Cc2ccccc2)CC1,140
4,Cc1cc(O)cc(C)c1C[C@H](N)C(=O)N1CCC(CCCc2ccccc2)CC1,110
5,Cc1cc(O)cc(C)c1C[C@H](N)C(=O)N1CCC(Cc2ccccc2)c2ccccc21 (stereo partly specified),310
6,Cc1cc(O)cc(C)c1C[C@H](N)C(=O)N1CCN(CCCc2ccccc2)CC1,250
7,Cc1cc(O)cc(C)c1C[C@H](N)C(=O)N1CCN(CCCCc2ccccc2)CC1,78

# Target: T3, Kappa-type opioid receptor
# Assay: Agonist activity at human kappa opioid receptor expressed in CHO cells assessed as stimulation of [35S]-GTPgammaS binding after 1 hr by liquid scintillation counting analysis
# Format: functional, cell-based
# Conditions: cho
row,Structure (SMILES),EC50
1,Cc1cc(O)cc(C)c1C[C@H](N)C(=O)N1CCN(CCC(c2ccccc2)c2ccccc2)CC1,Not Active
2,Cc1cc(O)cc(C)c1C[C@H](N)C(=O)N1CCC(Cc2ccccc2)CC1,Not Active
3,Cc1cc(O)cc(C)c1C[C@H](N)C(=O)N1CCC(CCCc2ccccc2)CC1,Not Active
4,Cc1cc(O)cc(C)c1C[C@H](N)C(=O)N1CCC(Cc2ccccc2)c2ccccc21 (stereo partly specified),Not Active
5,Cc1cc(O)cc(C)c1C[C@H](N)C(=O)N1CCN(C/C=C\Cc2ccccc2)CC1,Not Active
6,Cc1cc(O)cc(C)c1C[C@H](N)C(=O)N1CCN(C/C=C/c2cccc3ccccc23)CC1,Not Active
7,Cc1cc(O)cc(C)c1C[C@H](N)C(=O)N1CCN(CCCc2ccccc2)CC1,Not Active
8,Cc1cc(O)cc(C)c1C[C@H](N)C(=O)N1CCN(CCCc2cccc3ccccc23)CC1,Not Active
9,Cc1cc(O)cc(C)c1C[C@H](N)C(=O)N1CCN(CCCCc2ccccc2)CC1,Not Active

# Same assay, conditions: read-out: EC50
row,Structure (SMILES),EC50 [nM]
1,Cc1cc(O)cc(C)c1C[C@H](N)C(=O)N1CCN(CCCCCc2ccccc2)CC1,660

# Target: Mu-type opioid receptor (Homo sapiens, UniProt P35372)
# Sequence (P35372 whole entry): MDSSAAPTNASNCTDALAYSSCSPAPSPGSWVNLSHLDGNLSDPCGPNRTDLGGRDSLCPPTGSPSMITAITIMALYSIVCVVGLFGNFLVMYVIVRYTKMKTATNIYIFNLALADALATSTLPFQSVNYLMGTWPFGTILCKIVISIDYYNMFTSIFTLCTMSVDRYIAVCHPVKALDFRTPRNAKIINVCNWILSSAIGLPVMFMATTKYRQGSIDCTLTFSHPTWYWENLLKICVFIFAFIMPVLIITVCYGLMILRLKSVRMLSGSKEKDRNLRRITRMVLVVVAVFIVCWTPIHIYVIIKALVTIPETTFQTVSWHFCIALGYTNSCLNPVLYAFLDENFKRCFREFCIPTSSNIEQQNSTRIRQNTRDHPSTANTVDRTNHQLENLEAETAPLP
# Assay: Binding affinity to mu opioid receptor (unknown origin)
# Conditions: not given
row,Structure (SMILES),Ki [nM]
1,Cc1cc(O)cc(C)c1C[C@H](N)C(=O)N1CCCc2ccccc21,25.8

# Target: T3, Kappa-type opioid receptor
# Assay: Binding affinity to kappa opioid receptor (unknown origin)
# Conditions: not given
row,Structure (SMILES),Ki [nM]
1,Cc1cc(O)cc(C)c1C[C@H](N)C(=O)N1CCCc2ccccc21,36.5

# Target: Delta-type opioid receptor (Homo sapiens, UniProt P41143)
# Sequence (P41143 whole entry): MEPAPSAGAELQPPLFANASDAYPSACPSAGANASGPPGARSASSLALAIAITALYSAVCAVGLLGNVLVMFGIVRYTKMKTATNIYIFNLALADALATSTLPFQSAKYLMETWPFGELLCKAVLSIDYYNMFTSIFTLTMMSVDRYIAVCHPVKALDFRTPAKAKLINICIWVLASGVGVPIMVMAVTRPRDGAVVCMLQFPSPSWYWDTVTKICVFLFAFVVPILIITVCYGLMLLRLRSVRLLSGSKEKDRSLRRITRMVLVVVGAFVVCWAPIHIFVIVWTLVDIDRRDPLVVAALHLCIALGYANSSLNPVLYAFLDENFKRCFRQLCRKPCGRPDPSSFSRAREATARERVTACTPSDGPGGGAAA
# Assay: Binding affinity to delta opioid receptor (unknown origin)
# Conditions: not given
row,Structure (SMILES),Ki [nM]
1,Cc1cc(O)cc(C)c1C[C@H](N)C(=O)N1CCCc2ccccc21,33

# Target: T3, Kappa-type opioid receptor
# Assay: Agonist activity at human kappa opioid receptor expressed in CHO cells assessed as stimulation of [35S]-GTPgammaS binding at 10 uM after 1 hr by liquid scintillation counting analysis relative to U69,593
# Format: functional, cell-based
# Conditions: not given
row,Structure (SMILES),%max [%]
1,Cc1cc(O)cc(C)c1C[C@H](N)C(=O)N1CCN(CCCCCc2ccccc2)CC1,12

# Target: T2, Delta-type opioid receptor
# Assay: Displacement of [3H]diprenorphine from rat delta opioid receptor expressed in rat C6 cell membranes after 1 hr by liquid scintillation counting analysis
# Conditions: not given
row,Structure (SMILES),Ki [nM]
1,Cc1cc(O)cc(C)c1C[C@H](N)C(=O)N1CCN(CCCCCc2ccccc2)CC1,6.9
2,Cc1cc(O)cc(C)c1C[C@H](N)C(=O)N1CCN(C/C=C/Cc2ccccc2)CC1,23
3,Cc1cc(O)cc(C)c1C[C@H](N)C(=O)N1CCN(CCC(c2ccccc2)c2ccccc2)CC1,21
4,Cc1cc(O)cc(C)c1C[C@H](N)C(=O)N1CCC(Cc2ccccc2)CC1,7.8
5,Cc1cc(O)cc(C)c1C[C@H](N)C(=O)N1CCC(CCCc2ccccc2)CC1,12
6,Cc1cc(O)cc(C)c1C[C@H](N)C(=O)N1CCC(Cc2ccccc2)c2ccccc21 (stereo partly specified),14
7,Cc1cc(O)cc(C)c1C[C@H](N)C(=O)N1CCN(C/C=C\Cc2ccccc2)CC1,28
8,Cc1cc(O)cc(C)c1C[C@H](N)C(=O)N1CCN(CCCc2ccccc2)CC1,36
9,Cc1cc(O)cc(C)c1C[C@H](N)C(=O)N1CCN(CCCCc2ccccc2)CC1,6.6

# Target: Mu-type opioid receptor (Rattus norvegicus) (UniProt P33535)
# Sequence (P33535 whole entry): as the sequence (P33535 whole entry) above
# Assay: Agonist activity at rat mu opioid receptor expressed in rat C6 cells assessed as stimulation of [35S]-GTPgammaS binding at 10 uM after 1 hr by liquid scintillation counting analysis relative to DAMGO
# Format: functional, cell-based
# Conditions: not given
row,Structure (SMILES),%max [%]
1,Cc1cc(O)cc(C)c1C[C@H](N)C(=O)N1CCN(CCCCCc2ccccc2)CC1,42
2,Cc1cc(O)cc(C)c1C[C@H](N)C(=O)N1CCN(C/C=C/Cc2ccccc2)CC1,36
3,Cc1cc(O)cc(C)c1C[C@H](N)C(=O)N1CCC(CCCc2ccccc2)CC1,26
4,Cc1cc(O)cc(C)c1C[C@H](N)C(=O)N1CCN(C/C=C\Cc2ccccc2)CC1,49
5,Cc1cc(O)cc(C)c1C[C@H](N)C(=O)N1CCN(CCCc2ccccc2)CC1,23
6,Cc1cc(O)cc(C)c1C[C@H](N)C(=O)N1CCN(CCCCc2ccccc2)CC1,43
